Laboratory results taken from patent US12419890B2, “Administration of sumo-activating enzyme inhibitor and checkpoint inhibitors” (Takeda Pharmaceutical Company Limited, priority 2019, dated 2025).

Tested on: MC38 syngeneic mouse colon adenocarcinoma-derived subcutaneous tumor
Assay: MC38 Study 8: mouse MC38 syngeneic tumor model, individual tumor volume
Format: in vivo
Conditions: BIWx3 till Day 17
Experimental: MC38 Study 8: MC38 is a mouse colon adenocarcinoma cell line. MC38 mouse syngeneic tumor model was generated by subcutaneous inoculation with 1.0×10^6 MC38 cells (cell suspension) in 11 weeks old female C57BL/6 mice (SINO-British SIPPR/BK Lab Animal Ltd., Shanghai, China) in the flank. When the mean tumor volume reached approximately 60 mm^3, the animals were randomized into one vehicle control and five treatment groups (n=8/group). Mice were then dosed with 20% HPbCD or Compound I-263a or anti-mouse PD-1 antibody over a 21-day period. Tumor growth and body weight were measured twice per week during the treatment and post-treatment periods, and mice were humanely euthanized once they had reached their humane endpoint.
Study 8: A 0.75 mg/mL stock solution of Compound I-263a was formulated weekly in 20% HPβCD and administered intravenously (IV) based on exact animal body weight on each day of treatment, using a dosing volume of 10 mL/kg body weight. Final doses received were 7.5 mg/kg. Dosing volume for Compound I-263a was 0.2 mL. […]
Tumors were measured twice weekly using vernier calipers. Tumor volumes were calculated using standard equation: V=W^2×L/2, where V=volume, W=width, and L=length for the tumor. […] Tumor size and body weight were measured twice a week for the duration of the study. […]

SMILES: Cc1sc(C(=O)c2cncnc2N[C@@H]2C[C@H](COS(N)(=O)=O)[C@@H](O)C2)cc1[C@@H]1NCCc2ccc(Cl)cc21 [Compound I-263a, [(1R,2S,4R)-4-{[5-({4-[(1R)-7-chloro-1,2,3,4-tetrahydroisoquinolin-1-yl]-5-methyl-2-thienyl}carbonyl)pyrimidin-4-yl]amino}-2-hydroxycyclopentyl]methyl sulfamate]
- tumors with tumor growth delay (delay day 11-14, Compound I-263a 7.5 mg/kg IV or anti-mPD-1 10 mg/kg IP): 1
- tumors with tumor growth delay (delay from day 7-18, 8 implanted tumors, Compound I-263a 7.5 mg/kg IV alone or plus anti-mPD-1 10 mg/kg IP): 2
